Assay results taken from patent publication US9662351B2, “Plasma and brain pharmacokinetics of previously unexplored lithium salts” (University of South Florida, priority 2014, dated 2017).

Tests used:
[1] = rat
Experimental: Male Sprague Dawley rats weighing 200-250 grams were dosed via oral gavage with 4 meq. […] Blood and brain were collected and lithium was measured using atomic absorption spectroscopy (AAS).
Male Sprague Dawley rats weighing 200-250 grams were purchased from Harlan (Harlan Sprague Dawley Inc., Indianapolis, Ind.). […] The rats were allowed to acclimate for a period of one week before any experiments are carried out. […] They were allowed free access to food and water throughout the experiment. […] Animals in each treatment group were euthanized at 2, 24, 48, and 72 hours (n=3 per time point per lithium salt) and blood was collected by cardiac puncture and carefully perfused with a pressure controlled pump to maintain microvasculature integrity before removing brain tissue. Blood was centrifuged at 1600×g at room temperature for 10 minutes and plasma was separated. A 500 mL aliquot was diluted 10 fold in a 5% TCA and 10% isopropyl alcohol (IPA) solution, vortexed and allowed to sit for 10 minutes in order to precipitate proteins. These aliquots were centrifuged at 3000×g for 30 minutes and the supernatant was transferred to clean tubes prior to measuring lithium content using atomic absorption spectroscopy (AAS). Brains were rinsed with PBS, weighed, and an equal volume of concentrated HNO3 was added. The brains were heated in this nitric acid solution for 1 hour, allowed to cool to room temperature, then centrifuged at 3000×g for 1 hour. The supernatant was removed and diluted 10 fold in 10% IPA prior to measuring lithium content using AAS (Shimadzu AA-6200). Peak height measurements were carried out referring to values obtained for standards of known concentrations. […] Two tailed t-tests were used to assess the statistical significance at each time point for the pharmacokinetic curves. The criterion for rejection of the null hypothesis was P<0.05.

[2] = rat, same protocol; previously reported [7]; peaks rapidly; cited from earlier work

Structure (SMILES)	AUC(0-72) ([1]; brain lithium, 0-72 h, oral gavage 4 meq. kg^−1 elemental lithium, mean±SEM) [µg/g]	brain lithium exposure compared with other lithium salts (e.g. lithium lactate) ([1]; brain, oral)	plasma lithium exposure compared with other lithium salts (e.g. lithium lactate) ([1]; plasma, oral)	time to elimination of lithium [2] [h]
O=C([O-])c1ccccc1O.[Li+] [Lithium Salicylate, Lithium salicylate]	153.1 ± 7.66	better brain exposure	comparatively lower plasma lithium exposure	–
O=C([O-])[O-].[Li+].[Li+] [lithium carbonate]	–	–	–	≤ 48
